Key:
Type in all cases: binding
Settings in all cases: compound 1 uM
various enzymes [1] = target: various enzymes (Homo sapiens, UniProt O75582)
Procedure: (§1) Ambit profiling was conducted in accordance with the manufacturer's instructions.

various enzymes [2] = target: various enzymes (Homo sapiens, UniProt Q8IWQ3)
Procedure: as §1

various enzymes [3] = target: various enzymes (Homo sapiens, UniProt Q92772)
Procedure: as §1

various enzymes [4] = target: various enzymes (Homo sapiens, UniProt Q9H4A3)
Procedure: as §1

various enzymes [5] = target: various enzymes (Homo sapiens, UniProt Q9Y3S1)
Procedure: as §1

various enzymes [6] = target: various enzymes (Homo sapiens, UniProt Q15831)
Sequence of various enzymes (Homo sapiens, UniProt Q15831) (Q15831 whole entry): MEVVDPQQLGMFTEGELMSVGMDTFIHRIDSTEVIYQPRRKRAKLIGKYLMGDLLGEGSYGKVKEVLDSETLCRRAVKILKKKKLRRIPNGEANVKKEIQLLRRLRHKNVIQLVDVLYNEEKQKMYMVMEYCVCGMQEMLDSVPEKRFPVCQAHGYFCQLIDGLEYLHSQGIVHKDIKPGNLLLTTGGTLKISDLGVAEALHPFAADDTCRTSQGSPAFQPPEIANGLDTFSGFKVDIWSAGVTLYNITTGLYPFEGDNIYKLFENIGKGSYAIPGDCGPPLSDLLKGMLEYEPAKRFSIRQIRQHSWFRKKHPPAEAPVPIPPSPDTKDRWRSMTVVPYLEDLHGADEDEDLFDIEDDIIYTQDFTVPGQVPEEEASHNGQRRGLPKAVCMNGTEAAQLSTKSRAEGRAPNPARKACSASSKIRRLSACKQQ
Procedure: as §1

various enzymes [7] = target: various enzymes (Homo sapiens, UniProt P00519)
Procedure: as §1

various enzymes [8] = target: various enzymes (Homo sapiens, UniProt Q96D53)
Procedure: as §1

various enzymes [9] = target: various enzymes (Homo sapiens, UniProt Q8IU85)
Sequence of various enzymes (Homo sapiens, UniProt Q8IU85) (Q8IU85 whole entry): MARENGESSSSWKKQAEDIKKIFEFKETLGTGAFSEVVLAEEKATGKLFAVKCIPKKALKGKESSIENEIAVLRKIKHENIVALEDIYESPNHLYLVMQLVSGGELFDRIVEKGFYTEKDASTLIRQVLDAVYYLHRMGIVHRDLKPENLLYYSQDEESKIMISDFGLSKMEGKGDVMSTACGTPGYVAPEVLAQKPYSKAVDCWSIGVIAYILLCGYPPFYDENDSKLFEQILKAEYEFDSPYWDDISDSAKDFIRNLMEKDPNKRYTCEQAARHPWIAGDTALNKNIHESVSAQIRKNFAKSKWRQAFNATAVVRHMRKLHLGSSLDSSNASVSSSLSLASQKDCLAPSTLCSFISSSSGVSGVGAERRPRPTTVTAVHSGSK
Procedure: as §1

various enzymes [10] = target: T1, various enzymes (Homo sapiens, UniProt Q6PHR2)
T1 sequence (Q6PHR2 1-472): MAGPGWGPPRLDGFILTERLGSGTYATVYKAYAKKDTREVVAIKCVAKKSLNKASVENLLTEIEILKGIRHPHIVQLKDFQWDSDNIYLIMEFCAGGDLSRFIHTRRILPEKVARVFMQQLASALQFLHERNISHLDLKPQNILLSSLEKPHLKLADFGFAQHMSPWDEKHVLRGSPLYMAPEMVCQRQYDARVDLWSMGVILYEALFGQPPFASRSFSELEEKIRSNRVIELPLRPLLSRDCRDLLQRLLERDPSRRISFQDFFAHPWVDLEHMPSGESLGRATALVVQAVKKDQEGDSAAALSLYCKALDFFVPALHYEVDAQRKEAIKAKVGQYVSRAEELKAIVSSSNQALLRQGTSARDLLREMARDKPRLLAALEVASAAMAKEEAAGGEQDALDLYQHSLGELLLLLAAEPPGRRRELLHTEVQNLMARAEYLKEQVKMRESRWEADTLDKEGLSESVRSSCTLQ
Procedure: as §1

various enzymes [11] = target: T2, various enzymes (Homo sapiens, UniProt O75385)
T2 sequence (O75385 1-1050): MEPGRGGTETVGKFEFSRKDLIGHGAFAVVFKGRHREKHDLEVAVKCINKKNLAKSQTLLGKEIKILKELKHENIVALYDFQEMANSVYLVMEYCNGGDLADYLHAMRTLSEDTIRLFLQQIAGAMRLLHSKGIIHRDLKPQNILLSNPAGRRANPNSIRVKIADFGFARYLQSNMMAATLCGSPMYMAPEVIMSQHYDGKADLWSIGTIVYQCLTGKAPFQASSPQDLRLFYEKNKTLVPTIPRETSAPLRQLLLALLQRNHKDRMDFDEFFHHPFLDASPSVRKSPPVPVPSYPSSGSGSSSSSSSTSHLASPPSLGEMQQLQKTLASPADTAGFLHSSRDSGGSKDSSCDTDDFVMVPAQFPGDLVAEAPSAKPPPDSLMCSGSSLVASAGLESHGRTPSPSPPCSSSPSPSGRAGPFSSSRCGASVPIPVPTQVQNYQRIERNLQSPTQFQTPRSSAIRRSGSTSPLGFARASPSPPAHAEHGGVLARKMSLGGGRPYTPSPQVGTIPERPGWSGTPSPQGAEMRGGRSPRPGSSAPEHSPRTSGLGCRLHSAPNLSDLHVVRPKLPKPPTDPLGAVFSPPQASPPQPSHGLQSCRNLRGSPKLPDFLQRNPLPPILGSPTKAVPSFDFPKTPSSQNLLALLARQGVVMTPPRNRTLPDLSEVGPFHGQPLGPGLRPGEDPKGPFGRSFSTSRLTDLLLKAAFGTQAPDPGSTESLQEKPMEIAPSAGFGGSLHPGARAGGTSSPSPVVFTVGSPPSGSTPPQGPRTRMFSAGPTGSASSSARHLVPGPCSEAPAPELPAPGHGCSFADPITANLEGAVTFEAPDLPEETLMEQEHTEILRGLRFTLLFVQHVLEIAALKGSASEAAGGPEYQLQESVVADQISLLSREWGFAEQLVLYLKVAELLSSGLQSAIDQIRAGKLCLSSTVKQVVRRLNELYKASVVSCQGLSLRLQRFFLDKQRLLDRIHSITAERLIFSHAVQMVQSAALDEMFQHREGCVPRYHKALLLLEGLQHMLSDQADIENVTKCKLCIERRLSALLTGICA
Procedure: as §1

various enzymes [12] = target: various enzymes (Homo sapiens, UniProt Q9UPZ9)
Sequence of various enzymes (Homo sapiens, UniProt Q9UPZ9) (Q9UPZ9 whole entry): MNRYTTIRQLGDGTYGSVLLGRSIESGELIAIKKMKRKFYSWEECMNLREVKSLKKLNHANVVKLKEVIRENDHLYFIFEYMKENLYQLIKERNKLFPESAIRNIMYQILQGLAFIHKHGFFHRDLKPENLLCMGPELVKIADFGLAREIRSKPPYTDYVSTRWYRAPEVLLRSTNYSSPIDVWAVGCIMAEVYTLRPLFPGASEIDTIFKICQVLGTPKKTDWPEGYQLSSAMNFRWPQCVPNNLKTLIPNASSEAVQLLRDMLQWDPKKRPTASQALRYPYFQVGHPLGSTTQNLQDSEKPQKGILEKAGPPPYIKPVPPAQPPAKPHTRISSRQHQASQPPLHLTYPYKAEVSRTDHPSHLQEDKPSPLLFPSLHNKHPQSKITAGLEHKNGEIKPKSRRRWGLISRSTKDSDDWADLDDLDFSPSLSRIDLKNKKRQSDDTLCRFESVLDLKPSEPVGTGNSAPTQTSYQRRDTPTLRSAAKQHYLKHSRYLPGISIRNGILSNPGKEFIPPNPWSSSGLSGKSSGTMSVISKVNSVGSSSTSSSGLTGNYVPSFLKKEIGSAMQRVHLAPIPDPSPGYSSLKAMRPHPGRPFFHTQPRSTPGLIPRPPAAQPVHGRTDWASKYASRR
Procedure: as §1

various enzymes [13] = target: various enzymes (Homo sapiens, UniProt P45984)
Sequence of various enzymes (Homo sapiens, UniProt P45984) (P45984 whole entry): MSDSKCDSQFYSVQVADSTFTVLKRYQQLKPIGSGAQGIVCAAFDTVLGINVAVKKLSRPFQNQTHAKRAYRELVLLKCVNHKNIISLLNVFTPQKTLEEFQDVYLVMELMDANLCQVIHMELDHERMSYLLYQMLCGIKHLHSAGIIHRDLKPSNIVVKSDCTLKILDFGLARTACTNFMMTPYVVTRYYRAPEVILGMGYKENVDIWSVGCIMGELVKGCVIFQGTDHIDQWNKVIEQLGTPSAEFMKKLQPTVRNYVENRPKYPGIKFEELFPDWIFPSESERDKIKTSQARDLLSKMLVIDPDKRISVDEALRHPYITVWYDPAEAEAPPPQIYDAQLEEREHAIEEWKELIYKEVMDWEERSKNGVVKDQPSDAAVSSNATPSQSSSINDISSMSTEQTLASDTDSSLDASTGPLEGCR
Procedure: as §1

various enzymes [14] = target: various enzymes (Homo sapiens, UniProt P53671)
Procedure: as §1

various enzymes [15] = target: various enzymes (Homo sapiens, UniProt O14976)
Procedure: as §1

various enzymes [16] = target: various enzymes (Homo sapiens, UniProt O43293)
Procedure: as §1

various enzymes [17] = target: various enzymes (Homo sapiens, UniProt Q9BXA7)
Procedure: as §1

various enzymes [18] = target: various enzymes (Homo sapiens, UniProt Q9BX84)
Procedure: as §1

various enzymes [19] = target: various enzymes (Homo sapiens, UniProt P36897)
Sequence of various enzymes (Homo sapiens, UniProt P36897) (P36897 34-503): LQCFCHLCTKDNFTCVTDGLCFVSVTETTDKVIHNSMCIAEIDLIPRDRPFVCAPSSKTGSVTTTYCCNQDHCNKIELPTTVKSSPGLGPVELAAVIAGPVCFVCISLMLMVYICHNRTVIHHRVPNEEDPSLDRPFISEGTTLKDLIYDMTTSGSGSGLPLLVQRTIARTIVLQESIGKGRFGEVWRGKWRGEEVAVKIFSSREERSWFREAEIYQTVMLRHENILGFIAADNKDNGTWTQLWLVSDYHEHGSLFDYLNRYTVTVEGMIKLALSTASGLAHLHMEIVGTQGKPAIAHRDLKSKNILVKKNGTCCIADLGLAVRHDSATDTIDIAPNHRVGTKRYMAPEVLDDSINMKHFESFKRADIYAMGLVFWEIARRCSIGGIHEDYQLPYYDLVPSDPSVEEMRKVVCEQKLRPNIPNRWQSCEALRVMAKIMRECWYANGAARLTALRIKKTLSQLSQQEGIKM
Procedure: as §1

various enzymes [20] = target: various enzymes (Homo sapiens, UniProt P00519, H396P)
Procedure: as §1

various enzymes [21] = target: various enzymes (Homo sapiens, UniProt Q13546)
Sequence of various enzymes (Homo sapiens, UniProt Q13546) (Q13546 whole entry): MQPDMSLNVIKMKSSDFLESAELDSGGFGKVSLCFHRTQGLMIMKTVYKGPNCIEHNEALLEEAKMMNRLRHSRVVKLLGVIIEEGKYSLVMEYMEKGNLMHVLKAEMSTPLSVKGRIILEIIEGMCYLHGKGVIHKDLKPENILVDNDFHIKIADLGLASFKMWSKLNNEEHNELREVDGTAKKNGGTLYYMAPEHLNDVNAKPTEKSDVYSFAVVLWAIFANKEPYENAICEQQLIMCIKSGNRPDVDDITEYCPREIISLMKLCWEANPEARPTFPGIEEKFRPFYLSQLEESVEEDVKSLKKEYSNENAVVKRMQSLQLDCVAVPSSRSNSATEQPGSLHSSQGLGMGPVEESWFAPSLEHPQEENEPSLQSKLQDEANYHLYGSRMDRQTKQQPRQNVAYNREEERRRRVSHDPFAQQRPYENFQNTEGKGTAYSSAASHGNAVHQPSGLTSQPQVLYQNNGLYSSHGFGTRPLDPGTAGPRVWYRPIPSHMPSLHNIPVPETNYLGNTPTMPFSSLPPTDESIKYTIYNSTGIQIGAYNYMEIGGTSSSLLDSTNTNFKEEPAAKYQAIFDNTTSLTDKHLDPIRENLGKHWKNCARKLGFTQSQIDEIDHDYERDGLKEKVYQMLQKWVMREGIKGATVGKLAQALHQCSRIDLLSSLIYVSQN
Procedure: as §1

various enzymes [22] = target: various enzymes (Homo sapiens, UniProt P17612)
Procedure: as §1

various enzymes [23] = target: various enzymes (Homo sapiens, UniProt Q9Y6E0)
Sequence of various enzymes (Homo sapiens, UniProt Q9Y6E0) (Q9Y6E0 whole entry): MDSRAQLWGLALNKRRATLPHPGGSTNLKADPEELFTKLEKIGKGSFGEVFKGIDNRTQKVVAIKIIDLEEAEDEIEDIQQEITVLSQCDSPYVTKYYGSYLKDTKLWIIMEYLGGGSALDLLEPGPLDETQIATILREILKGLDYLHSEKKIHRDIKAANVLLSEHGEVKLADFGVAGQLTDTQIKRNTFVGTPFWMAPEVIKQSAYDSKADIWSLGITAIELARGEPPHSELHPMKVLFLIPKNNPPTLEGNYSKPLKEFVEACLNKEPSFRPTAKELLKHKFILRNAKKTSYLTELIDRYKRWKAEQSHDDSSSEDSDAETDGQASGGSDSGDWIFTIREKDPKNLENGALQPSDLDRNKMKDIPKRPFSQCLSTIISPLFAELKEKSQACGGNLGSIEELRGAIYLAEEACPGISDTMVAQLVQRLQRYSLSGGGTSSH
Procedure: as §1

Sequence of various enzymes (Homo sapiens, UniProt O75582) (O75582 whole entry): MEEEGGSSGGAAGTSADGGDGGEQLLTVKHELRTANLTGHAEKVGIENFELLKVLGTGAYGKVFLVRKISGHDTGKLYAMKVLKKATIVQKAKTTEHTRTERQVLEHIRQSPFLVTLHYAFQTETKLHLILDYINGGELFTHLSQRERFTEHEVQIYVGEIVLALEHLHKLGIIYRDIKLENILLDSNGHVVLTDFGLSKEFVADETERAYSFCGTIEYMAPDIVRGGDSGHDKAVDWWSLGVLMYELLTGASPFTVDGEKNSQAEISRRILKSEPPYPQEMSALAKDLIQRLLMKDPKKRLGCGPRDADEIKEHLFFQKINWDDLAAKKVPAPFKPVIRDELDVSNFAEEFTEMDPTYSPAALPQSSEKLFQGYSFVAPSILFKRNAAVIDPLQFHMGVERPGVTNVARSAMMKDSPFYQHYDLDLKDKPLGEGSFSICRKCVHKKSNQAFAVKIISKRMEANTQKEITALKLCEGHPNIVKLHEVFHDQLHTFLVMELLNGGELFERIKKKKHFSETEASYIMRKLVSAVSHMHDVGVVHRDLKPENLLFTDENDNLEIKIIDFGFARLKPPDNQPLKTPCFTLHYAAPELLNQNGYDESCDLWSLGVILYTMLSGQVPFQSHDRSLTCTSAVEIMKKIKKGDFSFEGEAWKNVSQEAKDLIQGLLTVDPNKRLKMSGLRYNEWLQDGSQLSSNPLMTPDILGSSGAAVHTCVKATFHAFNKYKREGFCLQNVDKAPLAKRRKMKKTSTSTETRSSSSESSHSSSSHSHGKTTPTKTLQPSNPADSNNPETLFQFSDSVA
Sequence of various enzymes (Homo sapiens, UniProt Q92772) (Q92772 whole entry): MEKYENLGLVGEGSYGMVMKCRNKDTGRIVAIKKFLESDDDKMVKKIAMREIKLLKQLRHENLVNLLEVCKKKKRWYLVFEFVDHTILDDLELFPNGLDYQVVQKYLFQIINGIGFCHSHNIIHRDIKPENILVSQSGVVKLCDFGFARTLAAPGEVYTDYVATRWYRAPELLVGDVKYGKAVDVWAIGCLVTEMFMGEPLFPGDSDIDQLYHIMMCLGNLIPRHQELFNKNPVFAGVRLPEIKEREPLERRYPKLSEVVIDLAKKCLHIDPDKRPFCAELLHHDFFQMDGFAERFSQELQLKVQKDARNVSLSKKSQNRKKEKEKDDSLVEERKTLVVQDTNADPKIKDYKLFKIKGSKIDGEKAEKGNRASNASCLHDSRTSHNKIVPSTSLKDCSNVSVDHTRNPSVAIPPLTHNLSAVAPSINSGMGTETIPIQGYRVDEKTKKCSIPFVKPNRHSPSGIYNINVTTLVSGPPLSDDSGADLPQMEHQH

CC(C)N1Cc2nn(C)cc2-c2cnc3[nH]cc(c3c2)-c2cn(nc2C(F)(F)F)CCCC1=O [Compound 45, (Z)-5-isopropyl-31-methyl-13-(trifluoromethyl)-11H,21H,31H-5-aza-2(3,5)-pyrrolo[2,3-b]pyridina-1(4,1),3(4,3)-dipyrazolacyclononaphan-6-one]
Ambit profiling: RPS6KA5(Kin.Dom.1-N-terminal) (various enzymes [1]): 70 | Ambit profiling: RPS6KA5(Kin.Dom.2-C-terminal) (various enzymes [1]): 100 | Ambit profiling: BRSK2 (various enzymes [2]): 64 | Ambit profiling: CDKL2 (various enzymes [3]): 14 | Ambit profiling: WNK1 (various enzymes [4]): 100 | Ambit profiling: WNK2 (various enzymes [5]): 64 | Ambit profiling: LKB1 (various enzymes [6]): 100 | Ambit profiling: ABL1-nonphosphorylated (various enzymes [7]): 20 | Ambit profiling: ABL1-phosphorylated (various enzymes [7]): 9 | Ambit profiling: ADCK4 (various enzymes [8]): 3.9 | Ambit profiling: CAMK1D (various enzymes [9]): 60 | Ambit profiling: ULK3 (various enzymes [10]): 30 | Ambit profiling: ULK1 (various enzymes [11]): 75 | Ambit profiling: ICK (various enzymes [12]): 0.95 | Ambit profiling: JNK2 (various enzymes [13]): 21 | Ambit profiling: LIMK2 (various enzymes [14]): 100 | Ambit profiling: GAK (various enzymes [15]): 5.7 | Ambit profiling: DAPK3 (various enzymes [16]): 99 | Ambit profiling: TSSK1B (various enzymes [17]): 83 | Ambit profiling: TRPM6 (various enzymes [18]): 83 | Ambit profiling: TGFBR1 (various enzymes [19]): 87 | Ambit profiling: ABL1(H396P)-nonphosphorylated (various enzymes [20]): 1.9 | Ambit profiling: ABL1(H396P)-phosphorylated (various enzymes [20]): 24 | Ambit profiling: RIPK1 (various enzymes [21]): 85 | Ambit profiling: PKAC-alpha (various enzymes [22]): 51 | Ambit profiling: MST3 (various enzymes [23]): 57

COc1c2c(nn1C)CN(C(C)C)C(=O)CCCn1cc(c(C(F)(F)F)n1)-c1c[nH]c3ncc-2cc13 [Compound 50, (Z)-5-isopropyl-35-methoxy-31-methyl-13-(trifluoromethyl)-11H,21H,31H-5-aza-2(3,5)-pyrrolo[2,3-b]pyridina-1(4,1),3(4,3)-dipyrazolacyclononaphan-6-one]
Ambit profiling: RPS6KA5(Kin.Dom.1-N-terminal) (various enzymes [1]): 18 | Ambit profiling: RPS6KA5(Kin.Dom.2-C-terminal) (various enzymes [1]): 72 | Ambit profiling: BRSK2 (various enzymes [2]): 72 | Ambit profiling: CDKL2 (various enzymes [3]): 20 | Ambit profiling: WNK1 (various enzymes [4]): 100 | Ambit profiling: WNK2 (various enzymes [5]): 46 | Ambit profiling: LKB1 (various enzymes [6]): 33 | Ambit profiling: ABL1-nonphosphorylated (various enzymes [7]): 11 | Ambit profiling: ABL1-phosphorylated (various enzymes [7]): 3.8 | Ambit profiling: ADCK4 (various enzymes [8]): 7.7 | Ambit profiling: CAMK1D (various enzymes [9]): 38 | Ambit profiling: ULK3 (various enzymes [10]): 73 | Ambit profiling: ULK1 (various enzymes [11]): 93 | Ambit profiling: ICK (various enzymes [12]): 12 | Ambit profiling: JNK2 (various enzymes [13]): 7.5 | Ambit profiling: LIMK2 (various enzymes [14]): 64 | Ambit profiling: GAK (various enzymes [15]): 4 | Ambit profiling: DAPK3 (various enzymes [16]): 71 | Ambit profiling: TSSK1B (various enzymes [17]): 43 | Ambit profiling: TRPM6 (various enzymes [18]): 100 | Ambit profiling: TGFBR1 (various enzymes [19]): 36 | Ambit profiling: ABL1(H396P)-nonphosphorylated (various enzymes [20]): 0.2 | Ambit profiling: ABL1(H396P)-phosphorylated (various enzymes [20]): 3.9 | Ambit profiling: RIPK1 (various enzymes [21]): 59 | Ambit profiling: PKAC-alpha (various enzymes [22]): 72 | Ambit profiling: MST3 (various enzymes [23]): 63

— patent publication US12157741B2, “Macrocyclic inhibitors of DYRK1A” (DANA-FARBER CANCER INSTITUTE, INC., priority 2018, dated 2024)
